Results taken from patent publication US7829567B2, “Imino-indeno[1,2-c] quinoline derivatives, their preparation processes, and pharmaceutical compositions comprising the same” (Kaohsiung Medical University, priority 2007, dated 2010).
Structures can show the parent of a compound that is named as a salt. Where two headings read alike, the source gives them in different places.

Tests used:
Assay type in all cases: cell-based
[1] = tested on: oral squamous cell carcinoma (SAS); experiment: In vitro anticancer assay (MTT), SAS; conditions: SAS cells, 48 hrs, mean ± spread, read-out: Anti-proliferative evaluation IC50, SAS
Experimental: (§1) The resultant tetrazolium salt was then dissolved by the addition of dimethyl sulfoxide. Color was measured spectrophotometrically in a microtiter plate reader at 570 nm and used as a relative measure of viable cell number. The number of viable cells after treatment was compared to solvent and untreated control cells and used to determine the percent of control growth as (Abtreated/Abcontrol)×100, where Ab represents the mean absorbance (n=3). […] D. Heo et al. […] (+)-camptothecin (CPT) and doxorubicin hydrochloride (Dox) were used for comparison with the compounds according to this invention.

[2] = tested on: esophageal carcinoma (CE81T); experiment: In vitro anticancer assay (MTT), CE81T; conditions: CE81T cells, 48 hrs, mean ± spread, read-out: Anti-proliferative evaluation IC50, CE81T
Experimental: as §1

[3] = tested on: human stomach adenocarcinoma (AGS); experiment: In vitro anticancer assay (MTT), AGS; conditions: AGS cells, 48 hrs, mean ± spread, read-out: Anti-proliferative evaluation IC50, AGS
Experimental: as §1

[4] = tested on: human cervical epithelioid carcinoma (HeLa); experiment: In vitro anticancer assay (MTT), HeLa; conditions: HeLa cells, 48 hrs, mean ± spread, read-out: Anti-proliferative evaluation IC50, HeLa
Experimental: as §1

[5] = tested on: hepatocellular carcinoma (SKHep1); experiment: In vitro anticancer assay (MTT), SKHep1; conditions: 48 hrs, mean ± spread, read-out: Anti-proliferative evaluation IC50, SKHep1
Experimental: as §1

[6] = tested on: human renal clear cell carcinoma; experiment: In vitro anticancer assay (MTT), RCC 768-O; conditions: RCC 768-O cells, 48 hrs, mean ± spread, read-out: Anti-proliferative evaluation IC50, RCC 768-O
Experimental: as §1

[7] = Homo sapiens, SK-HEP1, SKHep1 cells

| SMILES | IC50 [1] | IC50 [2] | IC50 [3] | IC50 [4] | IC50 ([5]; SKHep1 cells) | IC50 [6] | IC50 ([3]; Homo sapiens) | IC50 ([4]; Homo sapiens) | IC50 [5, 7] | IC50 ([6]; Homo sapiens) |
| --- | --- | --- | --- | --- | --- | --- | --- | --- | --- | --- |
| COc1ccc2c(c1)C(=O)c1c-2c(N2CCN(C(=O)CNCCCN(C)CCCN)CC2)nc2ccccc12 [Compound 5ss] | > 30 µM | > 30 µM | 12.5 ± 5.2 µM | > 30 µM | 21.5 ± 7 µM | 10.8 ± 1.1 µM |  |  |  |  |
| COc1cc2c(cc1OC)-c1c(N3CCNCC3)nc3ccccc3c1C2=O [Compound 5dd, 8,9-Dimethoxy-6-(piperazin-1-yl)-11H-indeno[1,2-c]quinolin-11-one] | 11.7 ± 1.6 µM | 8.3 ± 0.3 µM |  |  |  |  | 7.4 ± 2.1 µM | 7 ± 1.2 µM | 6.6 ± 3.2 µM | 7.1 ± 0.6 µM |
| COc1ccc2c(c1)C(=O)c1c-2c(N2CCN(C(=O)CCNCCCN(C)C)CC2)nc2ccccc12 [Compound 5ccc] | 13.5 ± 2.2 µM | 9.4 ± 0.6 µM | 2.8 ± 1.3 µM | 5.4 ± 1.3 µM | 8.6 ± 0.7 µM | 5.9 ± 0.9 µM |  |  |  |  |
| COc1ccc2c(c1)C(=O)c1c-2c(N2CCN(C(=O)CNCCNCCO)CC2)nc2ccccc12 [Compound 5rr] | 8.6 ± 0.9 µM | 6.6 ± 1.9 µM | 3.5 ± 1.1 µM | 6.6 ± 1.3 µM | 11.9 ± 2.5 µM | 7.6 ± 0.1 µM |  |  |  |  |
| COc1ccc2c(c1)C(=O)c1c-2c(N2CCN(C(=O)CN3CCNCC3)CC2)nc2ccccc12 [Compound 5tt] | 7.4 ± 1.1 µM | 7.2 ± 1.8 µM | 3.4 ± 0.4 µM | > 30 µM | 2.2 ± 1.3 µM | 4 ± 1.5 µM |  |  |  |  |
| COc1ccc2c(c1)C(=O)c1c-2c(N2CCN(CC(O)CN(C)C)CC2)nc2ccccc12 (stereo not drawn) [Compound 5mmm] | 6.9 ± 0.5 µM | 4.8 ± 4 µM | 7.9 ± 3.8 µM | 2.5 ± 0.7 µM | 2.2 ± 0.8 µM | 6.8 ± 0.1 µM |  |  |  |  |
| COc1ccc2c(c1)C(=O)c1c-2c(N2CCN(C(=O)CNCCNCCN)CC2)nc2ccccc12 [Compound 5qq] | > 30 µM | > 30 µM | 15.5 ± 1.5 µM | > 30 µM | > 30 µM | > 30 µM |  |  |  |  |
| COc1ccc2c(c1)C(=O)c1c-2c(N2CCN(C(=O)CCN3CCNCC3)CC2)nc2ccccc12 [Compound 5ggg] | 7.7 ± 0.9 µM | 7.2 ± 1.5 µM | 5.5 ± 0.5 µM | 4.7 ± 1.4 µM | 4.9 ± 1.1 µM | 1.5 ± 1.3 µM |  |  |  |  |
| COc1ccc2c(c1)C(=O)c1c-2c(N2CCN(C(=O)CCNCCCN(C)CCCN)CC2)nc2ccccc12 [Compound 5fff] | > 30 µM | > 30 µM | 10.8 ± 1.9 µM | > 30 µM | 23.5 ± 1.4 µM | > 30 µM |  |  |  |  |
| COc1ccc2c(c1)C(=O)c1c-2c(N2CCN(C(=O)CNCCO)CC2)nc2ccccc12 [Compound 5nn] | 11.3 ± 0.3 µM | 9.2 ± 0.8 µM | 6.5 ± 0.6 µM | 4.7 ± 2.3 µM | 6.6 ± 0.9 µM | 6.7 ± 0.5 µM |  |  |  |  |
| CNCC(=O)N1CCN(c2nc3ccccc3c3c2-c2ccc(OC)cc2C3=O)CC1 [Compound 5kk] | 7.4 ± 0.9 µM | 2.3 ± 1.3 µM | 7.2 ± 1.5 µM | 2 ± 0.6 µM | 4.8 ± 2.1 µM | 6.2 ± 1.9 µM |  |  |  |  |
| CN(C)CCCNc1nc2ccccc2c2c1-c1ccccc1C2=O [Compound 5b] | 6.9 ± 0.5 µM | > 30 µM | 9.8 ± 4 µM | 4 ± 0.9 µM | 4.6 ± 1.5 µM | 10 ± 0.8 µM |  |  |  |  |
| COc1ccc2c(c1OC)C(=O)c1c-2c(N2CCNCC2)nc2ccc(Cl)cc12 [Compound 5ff, 2-Chloro-9,10-dimethoxy-6-(piperazin-1-yl)-11H-indeno[1,2-c]quinolin-11-one] | 11 ± 3.2 µM | > 30 µM |  |  |  |  | 9.5 ± 2.7 µM | 4.6 ± 0.7 µM | 4.7 ± 2.2 µM | 6.9 ± 0.3 µM |
| COc1cccc2c1C(=O)c1c(O)c3c(c(O)c1C2=O)C[C@@](O)(C(=O)CO)C[C@@H]3O[C@H]1C[C@H](N)[C@H](O)[C@H](C)O1 [Dox, doxorubicin hydrochloride, reference compound] | 5.7 ± 0.3 µM | 0.3 ± 0.1 µM |  |  |  |  | > 30 µM | 0.4 ± 0.1 µM | < 0.1 µM | 2.2 ± 0.3 µM |
| COc1ccc2c(c1)C(=O)c1c-2c(N2CCNC(C)C2)nc2ccccc12 (stereo not drawn) [Compound 5y] | 13.4 ± 2.6 µM | 3.3 ± 2.2 µM | 7.9 ± 1.2 µM | 3.4 ± 1 µM | 2.9 ± 0.5 µM | 13.6 ± 5.5 µM |  |  |  |  |
| COc1ccc2c(c1)C(=O)c1c-2c(N2CCN(C(=O)CCNCCN(C)C)CC2)nc2ccccc12 [Compound 5bbb, 6-{4-{3-[2-(Dimethylamino)ethylamino]propanoyl}piperazin-1-yl}-9-methoxy-11H-indeno[1,2-c]quinolin-11-one] | 8.8 ± 1 µM | 7.4 ± 2 µM |  |  |  |  | 4.9 ± 1 µM | 4.8 ± 1.5 µM | 5.1 ± 1.5 µM | 7 ± 1.3 µM |
| COc1ccc2c(c1)C(=O)c1c-2c(N2CCN(C(=O)CNCCN)CC2)nc2ccccc12 [Compound 5mm] | > 30 µM | > 30 µM | 11.2 ± 1.5 µM | 8.7 ± 1.8 µM | 14.9 ± 3.6 µM | 10.5 ± 1 µM |  |  |  |  |
| O=C1c2ccccc2-c2c(N3CCNCC3)nc3ccccc3c21 [Compound 5aa] | 10.7 ± 0.9 µM | 11.1 ± 8.5 µM | 6.5 ± 2.6 µM | 1.1 ± 0.6 µM | 1.7 ± 1.1 µM | 7.7 ± 0.4 µM |  |  |  |  |
| COc1ccc(Nc2nc3ccccc3c3c2-c2ccc(OC)cc2C3=O)c(OC)c1 [Compound 5q] | > 30 µM | 22.7 ± 1.5 µM | > 30 µM | > 30 µM | > 30 µM | > 30 µM |  |  |  |  |

Next, values leading:

| IC50 [1] | IC50 [2] | IC50 [3] | IC50 [4] | IC50 ([5]; SKHep1 cells) | IC50 [6] | IC50 ([3]; Homo sapiens) | IC50 ([4]; Homo sapiens) | IC50 [5, 7] | IC50 ([6]; Homo sapiens) | SMILES |
| --- | --- | --- | --- | --- | --- | --- | --- | --- | --- | --- |
| 5.8 ± 0.5 µM | > 30 µM |  |  |  |  | 7.1 ± 0.8 µM | 0.8 ± 0.3 µM | 1.6 ± 0.5 µM | 4.5 ± 1.4 µM | COc1ccc2c(c1)C(=NOCCN1CCCCC1)c1c-2c(N2CCNCC2)nc2ccccc12 [Compound 6v, 9-Methoxy-6-(piperazin-1-yl)-11H-indeno[1,2-c]quinolin-11-one O-2-(piperidin-1-yl)ethyl oxime] |
| 7.3 ± 1.5 µM | 3.5 ± 2.7 µM | 7.6 ± 1.4 µM | 5.1 ± 0.6 µM | 4.6 ± 1.1 µM | 6.3 ± 1.3 µM |  |  |  |  | ON=C1c2ccccc2-c2c(N3CCNCC3)nc3ccccc3c21 [Compound 6i] |
| 19.1 ± 2.2 µM | 4.8 ± 1.6 µM | > 30 µM | 11.5 ± 1.3 µM | 11.6 ± 7.3 µM | > 30 µM |  |  |  |  | CON=C1c2cc(OC)ccc2-c2c(N3CCN(C(=O)CCNCCN(C)C)CC3)nc3ccccc3c21 [Compound 6o] |
| 2.4 ± 1.2 µM | > 30 µM |  |  |  |  | 6.8 ± 2 µM | 0.5 ± 0.2 µM | 0.7 ± 0.2 µM | 2 ± 1.9 µM | COc1ccc2c(c1)C(=NOCCN(C)C)c1c-2c(N2CCNCC2)nc2ccccc12 [Compound 6r, 9-Methoxy-6-(piperazin-1-yl)-11H-indeno[1,2-c]quinolin-11-one O-2-(dimethylamino)ethyl oxime] |
| 9 ± 2.7 µM | 9 ± 3.6 µM | 18.6 ± 6.2 µM | 1 ± 0.4 µM | 2.5 ± 1.7 µM | 13.9 ± 10.5 µM |  |  |  |  | COc1ccc2c(c1)C(=NOCC(O)CN(C)C)c1c-2c(N2CCN(CC(O)CN(C)C)CC2)nc2ccccc12 (stereo not drawn) [Compound 6z] |
| 4.4 ± 1.4 µM | 3.3 ± 1.8 µM | > 30 µM | 1.7 ± 0.2 µM | 0.9 ± 0.3 µM | 2.3 ± 0.6 µM |  |  |  |  | ON=C1c2cc(F)ccc2-c2c(N3CCNCC3)nc3ccccc3c21 [Compound 6k] |
| 6.9 ± 1.3 µM | > 30 µM | 5.8 ± 1.9 µM | 0.8 ± 0.2 µM | 1 ± 0.4 µM | 4.1 ± 1.9 µM |  |  |  |  | COc1ccc2c(c1)C(=NOCCN1CCOCC1)c1c-2c(N2CCNCC2)nc2ccccc12 [Compound 6w] |
